Experimental data taken from patent US8946223B2, “Substituted hydroxamic acids and uses thereof” (Millennium Pharmaceuticals, Inc., priority 2010, dated 2015).

Molecular target: T1, purified human HDAC6 (Homo sapiens, UniProt Q9UBN7)
T1 construct: purchased BPS Bioscience 5006
T1 sequence (Q9UBN7 1-1215): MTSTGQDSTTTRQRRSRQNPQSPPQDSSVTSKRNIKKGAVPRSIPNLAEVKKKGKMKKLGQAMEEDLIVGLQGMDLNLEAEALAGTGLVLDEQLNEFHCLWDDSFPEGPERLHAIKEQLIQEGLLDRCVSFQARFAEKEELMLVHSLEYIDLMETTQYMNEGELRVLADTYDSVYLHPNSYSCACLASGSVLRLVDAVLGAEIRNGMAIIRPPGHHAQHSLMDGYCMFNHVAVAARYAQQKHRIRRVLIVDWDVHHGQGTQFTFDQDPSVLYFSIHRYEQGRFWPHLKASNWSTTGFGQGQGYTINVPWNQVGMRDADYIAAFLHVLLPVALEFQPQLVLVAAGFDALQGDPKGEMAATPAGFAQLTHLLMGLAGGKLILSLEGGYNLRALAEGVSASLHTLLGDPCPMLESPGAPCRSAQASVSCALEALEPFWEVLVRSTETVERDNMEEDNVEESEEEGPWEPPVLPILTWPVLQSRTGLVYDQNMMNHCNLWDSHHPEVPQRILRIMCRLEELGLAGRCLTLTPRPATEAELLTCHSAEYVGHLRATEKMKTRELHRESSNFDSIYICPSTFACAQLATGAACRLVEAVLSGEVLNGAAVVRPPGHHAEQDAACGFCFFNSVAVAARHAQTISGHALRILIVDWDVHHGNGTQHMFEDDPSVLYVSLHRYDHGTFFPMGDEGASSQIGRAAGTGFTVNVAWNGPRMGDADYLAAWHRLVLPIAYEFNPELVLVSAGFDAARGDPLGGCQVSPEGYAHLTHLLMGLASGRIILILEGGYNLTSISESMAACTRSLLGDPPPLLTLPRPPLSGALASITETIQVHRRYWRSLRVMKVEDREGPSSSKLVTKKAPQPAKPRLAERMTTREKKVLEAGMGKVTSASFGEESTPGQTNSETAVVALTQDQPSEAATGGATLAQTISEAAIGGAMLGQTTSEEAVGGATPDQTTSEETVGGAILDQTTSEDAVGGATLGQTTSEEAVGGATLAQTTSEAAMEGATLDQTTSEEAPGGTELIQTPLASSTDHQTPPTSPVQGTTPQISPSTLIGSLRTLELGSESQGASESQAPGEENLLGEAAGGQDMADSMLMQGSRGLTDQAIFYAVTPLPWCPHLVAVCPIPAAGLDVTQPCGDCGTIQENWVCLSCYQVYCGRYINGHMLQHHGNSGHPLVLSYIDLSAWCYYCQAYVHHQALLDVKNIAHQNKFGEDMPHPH
Assay: HDAC6 enzyme assay
Assay type: biochemical
Details: bin: less than 100 nM
Protocol: To measure the inhibition of HDAC6 activity, purified human HDAC6 (BPS Bioscience; Cat. No. 5006) is incubated with substrate Ac-Arg-Gly-Lys(Ac)-AMC peptide (Bachem Biosciences; Cat. No. I-1925) for 1 hour at 30° C. in the presence of test compounds or vehicle DMSO control. The reaction is stopped with the HDAC inhibitor trichostatin A (Sigma; Cat. No. T8552) and the amount of Arg-Gly-Lys-AMC generated is quantitated by digestion with trypsin (Sigma; Cat. No. T1426) and subsequent measurement of the amount of AMC released using a fluorescent plate reader (Pherastar; BMG Technologies) set at Ex 340 nm and Em 460 nm. Concentration response curves are generated by calculating the fluorescence increase in test compound-treated samples relative to DMSO-treated controls, and enzyme inhibition (IC50) values are determined from those curves.

**Q.** Which IC50 does the source give for Cc1ccc2[nH]c(C(=O)N3CCn4cc(C(=O)NO)cc4C3)cc2c1 [Compound I-22, N-hydroxy-2-[(5-methyl-1H-indol-2-yl)carbonyl]-1,2,3,4-tetrahydropyrrolo[1,2-a]pyrazine-7-carboxamide] here?
**A.** < 0.1 µM

**Q.** How did the IC50 turn out when Cc1ccc2[nH]c(C(=O)N3CCn4cc(C(=O)NO)cc4C3)c(C)c2c1 [Compound I-28, 2-[(3,5-dimethyl-1H-indol-2-yl)carbonyl]-N-hydroxy-1,2,3,4-tetrahydropyrrolo[1,2-a]pyrazine-7-carboxamide] was run?
**A.** < 0.1 µM

**Q.** For Cn1c(C(=O)N2CCn3nc(C(=O)NO)cc3C2)cc2ccccc21 [Compound I-31, N-hydroxy-5-[(1-methyl-1H-indol-2-yl)carbonyl]-4,5,6,7-tetrahydropyrazolo[1,5-a]pyrazine-2-carboxamide], which IC50 is on record?
**A.** < 0.1 µM

**Q.** For Cn1cccc1C(=O)N1CCn2cc(C(=O)NO)cc2C1 [Compound I-32, N-hydroxy-2-[(1-methyl-1H-pyrrol-2-yl)carbonyl]-1,2,3,4-tetrahydropyrrolo[1,2-a]pyrazine-7-carboxamide], which IC50 is on record?
**A.** < 0.1 µM

**Q.** Which IC50 does the source give for Cc1cc(C(=O)N2CCn3cc(C(=O)NO)cc3C2)c(C)n1Cc1cccs1 [Compound I-35, 2-{[2,5-dimethyl-1-(2-thienylmethyl)-1H-pyrrol-3-yl]carbonyl}-N-hydroxy-1,2,3,4-tetrahydropyrrolo[1,2-a]pyrazine-7-carboxamide] here?
**A.** < 0.1 µM

**Q.** How did the IC50 turn out when O=C(NO)c1cc2n(c1)CCN(Cc1ccccc1)C2=O [Compound I-42, 2-benzyl-N-hydroxy-1-oxo-1,2,3,4-tetrahydropyrrolo[1,2-a]pyrazine-7-carboxamide] was run?
**A.** < 0.1 µM

**Q.** With O=C(NO)c1cn2c(n1)CN(C(=O)c1cc3ccccc3s1)CC2 [Compound I-44, 7-(1-benzothien-2-ylcarbonyl)-N-hydroxy-5,6,7,8-tetrahydroimidazo[1,2-a]pyrazine-2-carboxamide] as the molecule, how does the IC50 read?
**A.** < 0.1 µM

**Q.** For Cn1c(C(=O)N2CCn3cc(C(=O)NO)cc3C2)ccc1S(N)(=O)=O [Compound I-47, 2-{[5-(aminosulfonyl)-1-methyl-1H-pyrrol-2-yl]carbonyl}-N-hydroxy-1,2,3,4-tetrahydropyrrolo[1,2-a]pyrazine-7-carboxamide], which IC50 is on record?
**A.** < 0.1 µM

**Q.** With O=C(NO)c1cc2n(c1)CCN(C(=O)c1ccc(-c3ccccc3)cc1)C2 [Compound I-51, 2-(biphenyl-4-ylcarbonyl)-N-hydroxy-1,2,3,4-tetrahydropyrrolo[1,2-a]pyrazine-7-carboxamide] as the molecule, how does the IC50 read?
**A.** < 0.1 µM

**Q.** How did the IC50 turn out when COc1ccc(C(=O)N2CCn3cc(C(=O)NO)cc3C2)cc1 [Compound I-68, N-hydroxy-2-(4-methoxybenzoyl)-1,2,3,4-tetrahydropyrrolo[1,2-a]pyrazine-7-carboxamide] was run?
**A.** < 0.1 µM

Same assay, conditions: bins: greater than 1 μM and less than 10 μM; greater than 10 μM

**Q.** For CC1(C(=O)N2CCn3cc(C(=O)NO)nc3C2)CCCCC1 [Compound I-26, N-hydroxy-7-(1-methylcyclohexanecarbonyl)-5,6,7,8-tetrahydroimidazo[1,2-a]pyrazine-2-carboxamide], which IC50 is on record?
**A.** 1 to 10 µM

**Q.** With O=C(NO)c1cn2c(n1)CN(C(=O)C13CC4CC(CC(C4)C1)C3)CC2 [Compound I-27, 7-[1-adamantylcarbonyl]-N-hydroxy-5,6,7,8-tetrahydroimidazo[1,2-a]pyrazine-2-carboxamide] as the molecule, how does the IC50 read?
**A.** 1 to 10 µM

**Q.** O=C(NO)c1cc2n(c1)CCCN(C(=O)C1(c3ccc(Cl)cc3)CC1)C2 [Compound I-34, 2-{[1-(4-chlorophenyl)cyclopropyl]carbonyl}-N-hydroxy-2,3,4,5-tetrahydro-1H-pyrrolo[1,2-a][1,4]diazepine-8-carboxamide] was tested. Which IC50 did it give?
**A.** 1 to 10 µM

**Q.** Which IC50 does the source give for CC(C)(C)C(=O)N1CCn2nc(C(=O)NO)cc2C1 [Compound I-36, 5-(2,2-dimethylpropanoyl)-N-hydroxy-4,5,6,7-tetrahydropyrazolo[1,5-a]pyrazine-2-carboxamide] here?
**A.** > 10 µM

**Q.** Which IC50 does the source give for CC(C)(C(=O)N1CCn2nc(C(=O)NO)cc2C1)c1ccc(Cl)cc1 [Compound I-37, 5-[2-(4-chlorophenyl)-2-methylpropanoyl]-N-hydroxy-4,5,6,7-tetrahydropyrazolo[1,5-a]pyrazine-2-carboxamide] here?
**A.** 1 to 10 µM

**Q.** How did the IC50 turn out when O=C(NO)c1cc2n(c1)CCCN(C(=O)C13CC4CC(CC(C4)C1)C3)C2 [Compound I-38, 2-[1-adamantylcarbonyl]-N-hydroxy-2,3,4,5-tetrahydro-1H-pyrrolo[1,2-a][1,4]diazepine-8-carboxamide] was run?
**A.** 1 to 10 µM

**Q.** CC(C)(C)C(=O)N1CCn2cc(C(=O)NO)nc2C1 [Compound I-41, 7-(2,2-dimethylpropanoyl)-N-hydroxy-5,6,7,8-tetrahydroimidazo[1,2-a]pyrazine-2-carboxamide] was tested. Which IC50 did it give?
**A.** 1 to 10 µM

**Q.** CC(C)N1CCn2nc(C(=O)NO)cc2C1=O [Compound I-46, N-hydroxy-5-isopropyl-4-oxo-4,5,6,7-tetrahydropyrazolo[1,5-a]pyrazine-2-carboxamide] was tested. Which IC50 did it give?
**A.** 1 to 10 µM

**Q.** For COc1ccc(C(=O)N2CCCn3nc(C(=O)NO)cc3C2)cc1 [Compound I-53, N-hydroxy-5-(4-methoxybenzoyl)-5,6,7,8-tetrahydro-4H-pyrazolo[1,5-a][1,4]diazepine-2-carboxamide], which IC50 is on record?
**A.** > 10 µM

**Q.** Which IC50 does the source give for CS(=O)(=O)c1cccc(C(=O)N2CCn3cc(C(=O)NO)cc3C2)c1 [Compound I-54, N-hydroxy-2-[3-(methylsulfonyl)benzoyl]-1,2,3,4-tetrahydropyrrolo[1,2-a]pyrazine-7-carboxamide] here?
**A.** > 10 µM

**Q.** Cc1nc(C(=O)N2CCn3cc(C(=O)NO)nc3C2)cs1 [Compound I-55, N-hydroxy-7-[(2-methyl-1,3-thiazol-4-yl)carbonyl]-5,6,7,8-tetrahydroimidazo[1,2-a]pyrazine-2-carboxamide] was tested. Which IC50 did it give?
**A.** 1 to 10 µM

**Q.** For O=C(NO)c1cc2n(c1)CCCN(C(=O)c1ccc(Cl)cc1)C2 [Compound I-56, 2-(4-chlorobenzoyl)-N-hydroxy-2,3,4,5-tetrahydro-1H-pyrrolo[1,2-a][1,4]diazepine-8-carboxamide], which IC50 is on record?
**A.** 1 to 10 µM

**Q.** For CC(C)(C)CC(=O)N1CCCn2cc(C(=O)NO)cc2C1 [Compound I-59, 2-(3,3-dimethylbutanoyl)-N-hydroxy-2,3,4,5-tetrahydro-1H-pyrrolo[1,2-a][1,4]diazepine-8-carboxamide], which IC50 is on record?
**A.** 1 to 10 µM

**Q.** With Cn1nc(C(C)(C)C)cc1C(=O)N1CCCn2cc(C(=O)NO)cc2C1 [Compound I-63, 2-[(3-tert-butyl-1-methyl-1H-pyrazol-5-yl)carbonyl]-N-hydroxy-2,3,4,5-tetrahydro-1H-pyrrolo[1,2-a][1,4]diazepine-8-carboxamide] as the molecule, how does the IC50 read?
**A.** 1 to 10 µM

**Q.** For O=C(NO)c1cc2n(c1)CCN(C(=O)c1cnn(-c3ccccc3)c1C(F)(F)F)C2 [Compound I-64, N-hydroxy-2-{[1-phenyl-5-(trifluoromethyl)-1H-pyrazol-4-yl]carbonyl}-1,2,3,4-tetrahydropyrrolo[1,2-a]pyrazine-7-carboxamide], which IC50 is on record?
**A.** 1 to 10 µM

**Q.** How did the IC50 turn out when Cc1ccc(C(=O)N2CCCn3cc(C(=O)NO)cc3C2)s1 [Compound I-69, N-hydroxy-2-[(5-methyl-2-thienyl)carbonyl]-2,3,4,5-tetrahydro-1H-pyrrolo [1,2-a][1,4]diazepine-8-carboxamide] was run?
**A.** > 10 µM

**Q.** Which IC50 does the source give for Cn1cccc1C(=O)N1CCCn2nc(C(=O)NO)cc2C1 [Compound I-71, N-hydroxy-5-[(1-methyl-1H-pyrrol-2-yl)carbonyl]-5,6,7,8-tetrahydro-4H-pyrazolo[1,5-a][1,4]diazepine-2-carboxamide] here?
**A.** > 10 µM
